Molecules are shown by their SMILES.

In the assay the target is T1, human CRTH2 (Homo sapiens, UniProt Q9Y5Y4).
T1 construct: expressed in transfected cells
T1 sequence (Q9Y5Y4 1-395): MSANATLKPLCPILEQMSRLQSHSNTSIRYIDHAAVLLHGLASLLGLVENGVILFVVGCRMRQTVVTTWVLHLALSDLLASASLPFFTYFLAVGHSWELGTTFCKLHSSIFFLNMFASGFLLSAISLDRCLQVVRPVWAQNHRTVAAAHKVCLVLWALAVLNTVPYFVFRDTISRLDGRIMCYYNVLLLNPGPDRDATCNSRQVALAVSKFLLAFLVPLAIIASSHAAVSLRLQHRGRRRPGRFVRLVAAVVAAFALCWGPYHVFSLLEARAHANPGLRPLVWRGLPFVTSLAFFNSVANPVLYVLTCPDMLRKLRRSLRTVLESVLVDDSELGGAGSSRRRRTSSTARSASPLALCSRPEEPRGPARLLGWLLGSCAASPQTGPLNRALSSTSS
Briefly: Human CRTH2 Receptor Binding Assay (whole cell, [3H]ramatroban competition). The settings on record: CHO-K1 cells expressing human CRTH2 and G-alpha16; 20 nM [3H]ramatroban; 1 hour, room temperature. The source says: A whole cell receptor binding assay using [^3H]ramatroban as the competing radioactive ligand was employed to evaluate the compound binding activity to human CRTH2. The radioactive ligand [^3H]ramatroban was synthesized according to Sugimoto et. al. (Eur. J. Pharmacol. 524, 30-37, 2005) to a specific activity of 42 Ci/mmol.
A cell line stably expressing human CRTH2 was established by transfecting CHO-K1 cells with two mammalian expression vectors that harbored human CRTH2 and G-alpha16 cDNAs, respectively, using FuGene® 6 transfection reagent (from Roche). Stable clones expressing CRTH2 were selected by staining each clone with BM16 (BD Pharmingen™ from BD Biosciences, a division of Becton, Dickinson and Company), which is a rat monoclonal antibody to human CRTH2. The cells were maintained as monolayer cultures in Ham's F-12 medium containing 10% fetal bovine serum, 100 units/mL penicillin, […] streptomycin, 2 mM glutamine, 0.5 mg/mL G418 (geneticin) for CRTH2, and 0.2 mg/mL hygromycin-B (for G-alpha 16). For whole cell receptor binding assay, the monolayer cells were rinsed once with PBS (phosphate buffered saline), dissociated using diammonium ethylenediaminetetraacetate (Versene™ EDTA from the Dow Chemical Company), and suspended in PBS containing 10 mM MgCl2 and 0.06% BSA (bovine serum albumin) at 1.5×10^6 cells/mL.
The binding reactions (0.2 mL) were performed in 96-well plates at room temperature in PBS containing 1.5×10^5 cells, 10 mM MgCl2, 0.06% BSA, 20 nM [^3H]ramatroban, and test compound at various concentrations. After 1 hour of binding reactions, the cells were harvested on GF™/B filter microplates (microtiter plates with embedded glass fiber from PerkinElmer, Inc.) and washed 5 times with PBS using a Filtermate™ Harvester (a cell harvester that harvests and washes cells from microplates from PerkinElmer, Inc.). The radioactivities bound to the cells were determined using a microplate scintillation counter (TopCount® NXT, from PerkinElmer, Inc.) after adding 50 μL of Microscint™ 20 scintillation fluid (from PerkinElmer, Inc.) to each well of the filter plates. The radioactivity from non-specific binding was determined by replacing compound with 10 μM of 15(R)-15-methyl PGD2 (from Cayman Chemical Company) in the reaction mixtures. The radioactivity bound to the cells in the absence of compound (total binding) was determined by replacing compound with 0.25% of DMSO (dimethyl sulfoxide) in the reaction mixture. Specific binding data were obtained by subtracting the radioactivity of non-specific binding from each binding data.
The IC50 value is defined as the concentration of the tested compound that is required for 50% inhibition of total specific binding. In order to calculate the IC50 value, the percent inhibition data were determined for 7 concentrations for each compound. The percent inhibition for a compound at each concentration was calculated according to the following formula, [1-(specific binding in the presence of compound)/(total specific binding)]×100. The IC50 value was then obtained by fitting the percent inhibition data to a sigmoidal dose-response (4 parameter logistic) model in the XLfit® software Excel add-in program [from ID Business Solutions Ltd., model 205, where F(x)=(A+(B−A)/(1+((C/x)^D)))].
On to `O=C(O)COc1cc(Br)cc2c1CCC[C@H]2NS(=O)(=O)c1cc(C(F)(F)F)cc(C(F)(F)F)c1` [Example 1-20, [(R)-5-(3,5-Bis-trifluoromethyl-benzenesulfonyl-amino)-3-bromo-5,6,7,8-tetrahydro-naphthalen-1-yloxy]-acetic acid], for which the half-maximal inhibitory concentration (IC50) is 0.0025 µM.

The molecule `O=C(O)COc1cc(Cl)cc2c1CCCC2NS(=O)(=O)c1ccc(Cl)cc1Cl` (centres unmarked) [Example 1-11, [3-Chloro-5-(2,4-dichloro-benzenesulfonyl-amino)-5,6,7,8-tetrahydro-naphthalen-1-yloxy]-acetic acid] had an IC50 of 0.0035 µM.

Consider `CN(C1CCCc2c1cc(F)c(F)c2OCC(=O)O)S(=O)(=O)c1cc(Br)cc(C(F)(F)F)c1` (centres unmarked) [Example 2-20, {5-[(3-Bromo-5-trifluoromethyl-benzenesulfonyl)-methyl-amino]-2,3-difluoro-5,6,7,8-tetrahydro-naphthalen-1-yloxy}-acetic acid], for which the IC50 turned out to be 0.288 µM.

`CC(C)c1cccc(-c2ccc(S(=O)(=O)NC3CCCc4c(OCC(=O)O)cc(F)cc43)nc2)c1` (centres unmarked) [Example 1-35, {3-Fluoro-5-[5-(3-isopropyl-phenyl)-pyridine-2-sulfonylamino]-5,6,7,8-tetrahydro-naphthalen-1-yloxy}-acetic acid]: the IC50 turned out to be 0.007 µM.

As for `CC(C)c1cccc(-c2ccc(S(=O)(=O)NC3CCCc4c3cc(F)c(F)c4OCC(=O)O)nc2)c1` (centres unmarked) [Example 1-34, {2,3-Difluoro-5-[5-(3-isopropyl-phenyl)-pyridine-2-sulfonylamino]-5,6,7,8-tetrahydro-naphthalen-1-yloxy}-acetic acid], the half-inhibitory concentration (IC50) stood at 0.0086 µM.

`O=C(O)COc1cc(F)cc2c1CCCC2NS(=O)(=O)c1cc(Cl)ccc1Cl` (centres unmarked) [Example 1-33, [5-(2,5-Dichloro-benzenesulfonyl-amino)-3-fluoro-5,6,7,8-tetrahydro-naphthalen-1-yloxy]-acetic acid] displayed an IC50 of 0.081 µM.

For `CCc1ccc2c(c1OCC(=O)O)CCCC2NS(=O)(=O)c1cc(C(F)(F)F)cc(C(F)(F)F)c1` (centres unmarked) [Example 1-4, [5-(3,5-Bis-trifluoromethyl-benzenesulfonyl-amino)-2-ethyl-5,6,7,8-tetrahydro-naphthalen-1-yloxy]-acetic acid], the IC50 worked out at 0.064 µM.

As to `O=C(O)COc1cc(Cl)cc2c1CCC[C@H]2NS(=O)(=O)c1ccc(Cl)cc1Cl` [Example 1-18, [(R)-3-Chloro-5-(2,4-dichloro-benzenesulfonyl-amino)-5,6,7,8-tetrahydro-naphthalen-1-yloxy]-acetic acid], the IC50 worked out at 0.0028 µM.

`O=C(O)COc1c(Cl)c(Cl)cc2c1CCCC2NS(=O)(=O)c1cc(C(F)(F)F)cc(C(F)(F)F)c1` (centres unmarked) [Example 1-12, [5-(3,5-Bis-trifluoromethyl-benzenesulfonyl-amino)-2,3-dichloro-5,6,7,8-tetrahydro-naphthalen-1-yloxy]-acetic acid] yielded an IC50 of 0.0261 µM.

Consider `O=C(O)COc1cc(Br)cc2c1CCCC2NS(=O)(=O)c1cc(C(F)(F)F)cc(C(F)(F)F)c1` (centres unmarked) [Example 1-19, [5-(3,5-Bis-trifluoromethyl-benzenesulfonyl-amino)-3-bromo-5,6,7,8-tetrahydro-naphthalen-1-yloxy]-acetic acid], for which the IC50 was determined as 0.0029 µM.

Molecule `O=C(O)COc1c(F)c(Cl)cc2c1CCCC2NS(=O)(=O)c1cc(F)cc(C(F)(F)F)c1` (centres unmarked) [Example 1-21, [3-Chloro-2-fluoro-5-(3-fluoro-5-trifluoromethyl-benzenesulfonyl-amino)-5,6,7,8-tetrahydro-naphthalen-1-yloxy]-acetic acid] showed a concentration for half-maximal inhibition (IC50) of 0.0028 µM.

On to `O=C(O)COc1cc(F)cc2c1CCCC2NS(=O)(=O)c1ccc(Cl)cc1Cl` (centres unmarked) [Example 1-31, [5-(2,4-Dichloro-benzenesulfonyl-amino)-3-fluoro-5,6,7,8-tetrahydro-naphthalen-1-yloxy]-acetic acid], for which the IC50 turned out to be 0.154 µM.

`CN(C1CCCc2c1cc(Cl)c(F)c2OCC(=O)O)S(=O)(=O)c1cc(F)cc(C(F)(F)F)c1` (centres unmarked) [Example 2-15, {3-Chloro-2-fluoro-5-[(3-fluoro-5-trifluoromethyl-benzenesulfonyl)-methyl-amino]-5,6,7,8-tetrahydro-naphthalen-1-yloxy}-acetic acid]: the IC50 came to 0.0141 µM.

In turn, `CN(C1CCCc2c(OCC(=O)O)cc(F)cc21)S(=O)(=O)c1cc(Br)cc(C(F)(F)F)c1` (centres unmarked) [Example 2-22, {5-[(3-Bromo-5-trifluoromethyl-benzenesulfonyl)-methyl-amino]-3-fluoro-5,6,7,8-tetrahydro-naphthalen-1-yloxy}-acetic acid] gave a 50% inhibitory concentration (IC50) of 0.0054 µM.

`CN(C1CCCc2c(OCC(=O)O)cc(Cl)cc21)S(=O)(=O)c1cc(C(F)(F)F)cc(C(F)(F)F)c1` (centres unmarked) [Example 2-4, {5-[(3,5-Bis-trifluoromethyl-benzenesulfonyl)-methyl-amino]-3-chloro-5,6,7,8-tetrahydro-naphthalen-1-yloxy}-acetic acid] displayed an IC50 of 0.0083 µM.

On to `CC(C)c1cccc(-c2ccc(S(=O)(=O)NC3CCCc4c(OCC(=O)O)cc(Cl)cc43)nc2)c1` (centres unmarked) [Example 1-36, {3-Chloro-5-[5-(3-isopropyl-phenyl)-pyridine-2-sulfonylamino]-5,6,7,8-tetrahydro-naphthalen-1-yloxy}-acetic acid], for which the IC50 came to 0.0045 µM.

Turning to `CN(C1CCCc2c1cc(F)c(F)c2OCC(=O)O)S(=O)(=O)c1ccc(Cl)cc1Cl` (centres unmarked) [Example 2-18, {5-[(2,4-Dichloro-benzenesulfonyl)-methyl-amino]-2,3-difluoro-5,6,7,8-tetrahydro-naphthalen-1-yloxy}-acetic acid], the IC50 came to 2.52 µM.

Take `CC(C)c1cccc(-c2ccc(S(=O)(=O)NC3CCCc4c3cc(Cl)c(F)c4OCC(=O)O)nc2)c1` (centres unmarked) [Example 1-44, {3-Chloro-2-fluoro-5-[5-(3-isopropyl-phenyl)-pyridine-2-sulfonylamino]-5,6,7,8-tetrahydro-naphthalen-1-yloxy}-acetic acid]: the IC50 amounted to 0.0164 µM.

For `O=C(O)COc1c(F)c(F)cc2c1CCCC2NS(=O)(=O)c1cc(Br)cc(C(F)(F)F)c1` (centres unmarked) [Example 1-29, [5-(3-Bromo-5-trifluoromethyl-benzenesulfonyl-amino)-2,3-difluoro-5,6,7,8-tetrahydro-naphthalen-1-yloxy]-acetic acid], the half-inhibitory concentration (IC50) is 0.0182 µM.

The molecule `CN(C1CCCc2c(OCC(=O)O)cc(Cl)cc21)S(=O)(=O)c1cc(Cl)ccc1Cl` (centres unmarked) [Example 2-10, {3-Chloro-5-[(2,5-dichloro-benzenesulfonyl)-methyl-amino]-5,6,7,8-tetrahydro-naphthalen-1-yloxy}-acetic acid] registered a concentration for half-maximal inhibition (IC50) of 0.859 µM.

In turn, `O=C(O)COc1c(Cl)ccc2c1CCCC2NS(=O)(=O)c1cc(C(F)(F)F)cc(C(F)(F)F)c1` (centres unmarked) [Example 1-7, [5-(3,5-Bis-trifluoromethyl-benzenesulfonyl-amino)-2-chloro-5,6,7,8-tetrahydro-naphthalen-1-yloxy]-acetic acid] had an IC50 of 0.292 µM.

`O=C(O)COc1c(F)c(Cl)cc2c1CCCC2NS(=O)(=O)c1cc(Cl)ccc1Cl` (centres unmarked) [Example 1-10] returned a concentration for half-maximal inhibition (IC50) of 0.0114 µM.

`O=C(O)COc1cc(Cl)cc2c1CCCC2NS(=O)(=O)c1cc(Cl)ccc1Cl` (centres unmarked) [Example 1-13, [3-Chloro-5-(2,5-dichloro-benzenesulfonyl-amino)-5,6,7,8-tetrahydro-naphthalen-1-yloxy]-acetic acid] displayed an IC50 of 0.0071 µM.

In general, IC50 refers to the concentration needed to halve the response being measured. Read a low IC50 as greater potency.

These data come from patent publication US8263656B2 (Hoffmann-La Roche Inc., priority 2008, dated 2012).
